How the values were obtained:
[1] = target: T1, human VR1 (Homo sapiens, UniProt Q8NER1); assay: VR1 capsaicin-based assay in HEK293-EcR cells (FLIPR, Fluo-4); type: cell-based
T1 construct: expressed in transfected cells
Description: Human VR1 cloning. Human spinal cord RNA (commercially available from Clontech, Palo Alto, Calif.) was used. Reverse transcription was conducted on 1.0 μg total RNA using Thermoscript Reverse Transcriptase (commercially available from Invitrogen, Carlsbad, Calif.) and oligo dT primers as detailed in its product description. Reverse transcription reactions were incubated at 55° C. for 1 h, heat-inactivated at 85° C. for 5 min, and RNase H-treated at 37° C. for 20 min. Human VR1 cDNA sequence was obtained by comparison of the human genomic sequence, prior to annotation, to the published rat sequence. Intron sequences were removed and flanking exonic sequences were joined to generate the hypothetical human cDNA. […] On the day of assay, cells were loaded with Fluo-4 (a calcium-sensitive dye that is commercially available from Molecular Probes, Eugene, Oreg.) and CAP-mediated calcium influx was measured using a Fluorometric Imaging Plate Reader (“FLIPR”) (commercially available from Molecular Devices Corp., Sunnyvale, Calif.) as described below. […]

[2] = target: T1, human VR1; assay: VR1 pH-based assay in HEK293-EcR cells (FLIPR, Fluo-4); type: cell-based; conditions: activation by agonist buffer giving pH 5.5, human VR1 in PonA-induced HEK293-EcR cells, 50 pM to 3 μM, n+3
Description: Human VR1 cloning. Human spinal cord RNA (commercially available from Clontech, Palo Alto, Calif.) was used. Reverse transcription was conducted on 1.0 μg total RNA using Thermoscript Reverse Transcriptase (commercially available from Invitrogen, Carlsbad, Calif.) and oligo dT primers as detailed in its product description. Reverse transcription reactions were incubated at 55° C. for 1 h, heat-inactivated at 85° C. for 5 min, and RNase H-treated at 37° C. for 20 min. Human VR1 cDNA sequence was obtained by comparison of the human genomic sequence, prior to annotation, to the published rat sequence. Intron sequences were removed and flanking exonic sequences were joined to generate the hypothetical human cDNA. Primers flanking the coding region of human VR1 were designed as follows: forward primer, [NT]; and reverse primer, [NT] of VR1 was performed on one tenth of the Reverse transcription reaction mixture using Expand Long Template Polymerase and Expand Buffer 2 in a final volume of 50 μL according to the manufacturer's instructions (Roche Applied Sciences, Indianapolis, Ind.). After denaturation at 94° C. for 2 min PCR amplification was performed for 25 cycles at 94° C. for 15 sec, 58° C. for 30 sec, and 68° C. for 3 min followed by a final incubation at 72° C. for 7 min to complete the amplification. […]

T1 sequence (Q8NER1 whole entry): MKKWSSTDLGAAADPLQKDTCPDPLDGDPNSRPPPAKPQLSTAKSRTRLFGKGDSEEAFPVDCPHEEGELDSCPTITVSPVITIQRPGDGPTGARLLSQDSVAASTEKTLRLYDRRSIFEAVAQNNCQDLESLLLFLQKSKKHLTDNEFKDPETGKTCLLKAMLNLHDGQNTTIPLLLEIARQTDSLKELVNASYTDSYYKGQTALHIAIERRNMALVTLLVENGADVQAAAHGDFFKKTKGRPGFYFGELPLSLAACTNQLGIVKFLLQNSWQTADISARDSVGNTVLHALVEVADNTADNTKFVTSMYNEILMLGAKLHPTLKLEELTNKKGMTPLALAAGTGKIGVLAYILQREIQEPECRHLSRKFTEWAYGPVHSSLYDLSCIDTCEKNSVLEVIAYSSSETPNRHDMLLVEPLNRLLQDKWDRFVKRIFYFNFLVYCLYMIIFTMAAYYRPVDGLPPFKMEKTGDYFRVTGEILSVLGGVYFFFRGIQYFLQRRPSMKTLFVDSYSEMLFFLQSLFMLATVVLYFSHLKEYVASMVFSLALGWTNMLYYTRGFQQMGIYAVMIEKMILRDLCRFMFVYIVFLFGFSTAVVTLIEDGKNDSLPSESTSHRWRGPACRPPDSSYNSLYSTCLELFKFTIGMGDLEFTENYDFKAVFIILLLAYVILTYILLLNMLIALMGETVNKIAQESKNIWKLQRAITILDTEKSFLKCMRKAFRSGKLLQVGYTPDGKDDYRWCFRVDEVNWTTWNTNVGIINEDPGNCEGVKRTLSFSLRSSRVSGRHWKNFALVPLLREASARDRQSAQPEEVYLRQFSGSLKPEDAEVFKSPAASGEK

IC50 ([1]; capsaicin-based assay, human VR1 activated by capsaicin (400 nM) in PonA-induced HEK293-EcR cells, 50 pM to 3 μM, n+3): 0.0594 ± 0.0131 µM
IC50 [2]: 0.197 ± 0.0398 µM
SMILES: C[C@@H]1CN(c2ncccc2Cl)CCN1/C(=N\C#N)NCCC1=CCCCC1 [Compound DEY]
binding to and modulation of human VR1 (conclusion in words) ([1]; conclusion from the pH-based assay and the capsaicin-based assay): binds to and modulates the activity of human VR1

Reference: patent US7279493B2, “Therapeutic agents useful for treating pain” (Euro-Celtique S.A., priority 2002, dated 2007)
